Laboratory results taken from ChEMBL document CHEMBL1154835, “Antimicrobial study of newly synthesized 6-substituted indolo[1,2-c]quinazolines” (2010).
≈ marks a conversion by molar mass, not a printed value.

Experiments:
Trichoderma viride [1] = experiment: Antimicrobial activity against Trichoderma viride at 1000 ug after 72 hrs by cup plate method; type: functional; conditions: read-out: DIZ
Bacillus subtilis [2] = experiment: Antimicrobial activity against Bacillus subtilis at 1000 ug after 24 hrs by cup plate method; type: functional; conditions: read-out: DIZ
Aspergillus niger [3] = experiment: Antimicrobial activity against Aspergillus niger at 1000 ug after 72 hrs by cup plate method; type: functional; conditions: read-out: DIZ
Streptococcus pyogenes [4] = experiment: Antimicrobial activity against Streptococcus pyogenes after 24 hrs by liquid dilution method; type: functional
Escherichia coli [5] = experiment: Antimicrobial activity against Escherichia coli after 24 hrs by liquid dilution method; type: functional
Escherichia coli [6] = experiment: Antimicrobial activity against Escherichia coli at 1000 ug after 24 hrs by cup plate method; type: functional; conditions: read-out: DIZ
Trichoderma viride [7] = experiment: Antimicrobial activity against Trichoderma viride after 24 hrs by liquid dilution method; type: functional
Klebsiella pneumoniae [8] = experiment: Antimicrobial activity against Klebsiella pneumoniae after 24 hrs by liquid dilution method; type: functional
Staphylococcus aureus [9] = experiment: Antimicrobial activity against Staphylococcus aureus after 24 hrs by liquid dilution method; type: functional
Salmonella enterica [10] = experiment: Antimicrobial activity against Salmonella Typhimurium at 1000 ug after 24 hrs by cup plate method; type: functional, Salmonella enterica subsp. enterica serovar Typhimurium; conditions: read-out: DIZ
Streptococcus pyogenes [11] = experiment: Antimicrobial activity against Streptococcus pyogenes at 1000 ug after 24 hrs by cup plate method; type: functional; conditions: read-out: DIZ
Staphylococcus aureus [12] = experiment: Antimicrobial activity against Staphylococcus aureus at 1000 ug after 24 hrs by cup plate method; type: functional; conditions: read-out: DIZ
Klebsiella pneumoniae [13] = experiment: Antimicrobial activity against Klebsiella pneumoniae at 1000 ug after 24 hrs by cup plate method; type: functional; conditions: read-out: DIZ
Candida albicans [14] = experiment: Antimicrobial activity against Candida albicans at 1000 ug after 72 hrs by cup plate method; type: functional; conditions: read-out: DIZ
Salmonella enterica [15] = experiment: Antimicrobial activity against Salmonella Typhimurium after 24 hrs by liquid dilution method; type: functional, Salmonella enterica subsp. enterica serovar Typhimurium
Aspergillus niger [16] = experiment: Antimicrobial activity against Aspergillus niger after 24 hrs by liquid dilution method; type: functional
Bacillus subtilis [17] = experiment: Antimicrobial activity against Bacillus subtilis after 24 hrs by liquid dilution method; type: functional
Candida albicans [18] = experiment: Antimicrobial activity against Candida albicans after 24 hrs by liquid dilution method; type: functional

Row | Compound | MIC (Streptococcus pyogenes [4]) | MIC (Escherichia coli [5]) | MIC (Trichoderma viride [7]) | MIC (Klebsiella pneumoniae [8]) | MIC (Staphylococcus aureus [9]) | MIC (Salmonella enterica [15]) | MIC (Aspergillus niger [16]) | MIC (Bacillus subtilis [17]) | MIC (Candida albicans [18]) | zone of inhibition at 1000 µg/disc (Trichoderma viride [1]) | zone of inhibition at 1000 µg/disc (Bacillus subtilis [2]) | zone of inhibition at 1000 µg/disc (Aspergillus niger [3]) | zone of inhibition at 1000 µg/disc (Escherichia coli [6]) | zone of inhibition at 1000 µg/disc (Salmonella enterica [10]) | zone of inhibition at 1000 µg/disc (Streptococcus pyogenes [11]) | zone of inhibition at 1000 µg/disc (Staphylococcus aureus [12]) | zone of inhibition at 1000 µg/disc (Klebsiella pneumoniae [13]) | zone of inhibition at 1000 µg/disc (Candida albicans [14])
1 | CC1(C)S[C@@H]2[C@H](NC(=O)[C@H](N)c3ccccc3)C(=O)N2[C@H]1C(=O)O [AMPICILLIN] | 25 µg/mL (≈ 71.5 µM) | 5 µg/mL (≈ 14.3 µM) |  | 10 µg/mL (≈ 28.6 µM) | 10 µg/mL (≈ 28.6 µM) | 10 µg/mL (≈ 28.6 µM) |  | 20 µg/mL (≈ 57.2 µM) |  |  | 39 mm |  | 40 mm | 45 mm | 35 mm | 48 mm | 45 mm | 
2 | CC(=O)N1CCN(c2ccc(OCC3COC(Cn4ccnc4)(c4ccc(Cl)cc4Cl)O3)cc2)CC1 (stereo not given) [KETOCONAZOLE] |  |  | 20 µg/mL (≈ 37.6 µM) |  |  |  | 15 µg/mL (≈ 28.2 µM) |  | 25 µg/mL (≈ 47 µM) | 41 mm |  | 45 mm |  |  |  |  |  | 40 mm
3 | c1ccc2c(c1)cc1c3ccccc3nc(-c3ccc(Oc4ccc(-c5nc6ccccc6c6cc7ccccc7n56)cc4)cc3)n21 |  |  |  |  |  |  |  |  |  | 18 mm | 14 mm | 10 mm | 14 mm | 11 mm | 13 mm | 18 mm | 21 mm | 9 mm
4 | c1ccc2cc(-c3nc4ccccc4c4cc5ccccc5n34)c(-c3nc4ccccc4c4cc5ccccc5n34)cc2c1 | 15 µg/mL (≈ 26.8 µM) | 35 µg/mL (≈ 62.4 µM) | 30 µg/mL (≈ 53.5 µM) | 20 µg/mL (≈ 35.7 µM) | 5 µg/mL (≈ 8.92 µM) | 35 µg/mL (≈ 62.4 µM) | 35 µg/mL (≈ 62.4 µM) | 15 µg/mL (≈ 26.8 µM) | 25 µg/mL (≈ 44.6 µM) | 12 mm | 45 mm | 17 mm | 12 mm | 14 mm | 39 mm | 50 mm | 35 mm | 16 mm
5 | c1ccc2c(c1)cc1c3ccccc3nc(-c3ccc(-c4nc5ccccc5c5cc6ccccc6n45)cc3)n21 |  |  |  |  |  |  |  |  |  | 9 mm | 14 mm | 12 mm | 16 mm | 11 mm | 18 mm | 25 mm | 13 mm | 21 mm

Second part, led by results:

Row | MIC (Streptococcus pyogenes [4]) | MIC (Escherichia coli [5]) | MIC (Trichoderma viride [7]) | MIC (Klebsiella pneumoniae [8]) | MIC (Staphylococcus aureus [9]) | MIC (Salmonella enterica [15]) | MIC (Aspergillus niger [16]) | MIC (Bacillus subtilis [17]) | MIC (Candida albicans [18]) | Compound | zone of inhibition at 1000 µg/disc (Trichoderma viride [1]) | zone of inhibition at 1000 µg/disc (Bacillus subtilis [2]) | zone of inhibition at 1000 µg/disc (Aspergillus niger [3]) | zone of inhibition at 1000 µg/disc (Escherichia coli [6]) | zone of inhibition at 1000 µg/disc (Salmonella enterica [10]) | zone of inhibition at 1000 µg/disc (Streptococcus pyogenes [11]) | zone of inhibition at 1000 µg/disc (Staphylococcus aureus [12]) | zone of inhibition at 1000 µg/disc (Klebsiella pneumoniae [13]) | zone of inhibition at 1000 µg/disc (Candida albicans [14])
6 | 5 µg/mL (≈ 14.4 µM) | 2.5 µg/mL (≈ 7.2 µM) | 5 µg/mL (≈ 14.4 µM) | 2.5 µg/mL (≈ 7.2 µM) | 5 µg/mL (≈ 14.4 µM) | 5 µg/mL (≈ 14.4 µM) | 2.5 µg/mL (≈ 7.2 µM) | 10 µg/mL (≈ 28.8 µM) | 20 µg/mL (≈ 57.6 µM) | Cc1ccc2[nH]cc(-c3nc4ccccc4c4cc5ccccc5n34)c2c1 | 46 mm | 42 mm | 50 mm | 42 mm | 46 mm | 45 mm | 52 mm | 48 mm | 51 mm
7 | 15 µg/mL (≈ 40.4 µM) | 25 µg/mL (≈ 67.3 µM) | 25 µg/mL (≈ 67.3 µM) | 30 µg/mL (≈ 80.8 µM) | 5 µg/mL (≈ 13.5 µM) | 20 µg/mL (≈ 53.8 µM) | 25 µg/mL (≈ 67.3 µM) | 10 µg/mL (≈ 26.9 µM) | 30 µg/mL (≈ 80.8 µM) | c1ccc2c(c1)cc1c3ccccc3nc(-c3ccc(-c4ccncc4)cc3)n21 | 21 mm | 48 mm | 22 mm | 35 mm | 25 mm | 42 mm | 50 mm | 42 mm | 18 mm
8 | 15 µg/mL (≈ 29.4 µM) | 10 µg/mL (≈ 19.6 µM) | 25 µg/mL (≈ 49 µM) | 35 µg/mL (≈ 68.5 µM) | 5 µg/mL (≈ 9.79 µM) | 20 µg/mL (≈ 39.2 µM) | 30 µg/mL (≈ 58.8 µM) | 15 µg/mL (≈ 29.4 µM) | 30 µg/mL (≈ 58.8 µM) | c1cc(-c2nc3ccccc3c3cc4ccccc4n23)cc(-c2nc3ccccc3c3cc4ccccc4n23)c1 | 21 mm | 46 mm | 12 mm | 20 mm | 35 mm | 48 mm | 51 mm | 18 mm | 15 mm
9 | 20 µg/mL (≈ 39.2 µM) | 20 µg/mL (≈ 39.2 µM) | 35 µg/mL (≈ 68.5 µM) | 30 µg/mL (≈ 58.8 µM) | 5 µg/mL (≈ 9.79 µM) | 25 µg/mL (≈ 49 µM) | 20 µg/mL (≈ 39.2 µM) | 20 µg/mL (≈ 39.2 µM) | 35 µg/mL (≈ 68.5 µM) | c1ccc(-c2nc3ccccc3c3cc4ccccc4n23)c(-c2nc3ccccc3c3cc4ccccc4n23)c1 | 18 mm | 40 mm | 20 mm | 16 mm | 18 mm | 46 mm | 52 mm | 14 mm | 13 mm
10 | 2.5 µg/mL (≈ 7.5 µM) | 2.5 µg/mL (≈ 7.5 µM) | 2.5 µg/mL (≈ 7.5 µM) | 5 µg/mL (≈ 15 µM) | 2.5 µg/mL (≈ 7.5 µM) | 2.5 µg/mL (≈ 7.5 µM) | 10 µg/mL (≈ 30 µM) | 15 µg/mL (≈ 45 µM) | 5 µg/mL (≈ 15 µM) | c1ccc2c(c1)cc1c3ccccc3nc(-c3c[nH]c4ccccc34)n21 | 50 mm | 46 mm | 46 mm | 52 mm | 48 mm | 49 mm | 51 mm | 49 mm | 49 mm
11 | 5 µg/mL (≈ 14.3 µM) | 2.5 µg/mL (≈ 7.13 µM) | 2.5 µg/mL (≈ 7.13 µM) | 5 µg/mL (≈ 14.3 µM) | 2.5 µg/mL (≈ 7.13 µM) | 2.5 µg/mL (≈ 7.13 µM) | 2.5 µg/mL (≈ 7.13 µM) | 2.5 µg/mL (≈ 7.13 µM) | 10 µg/mL (≈ 28.5 µM) | c1ccc2c(c1)cc1c3ccccc3nc(-c3csc4ccccc34)n21 | 49 mm | 51 mm | 52 mm | 48 mm | 50 mm | 48 mm | 55 mm | 50 mm | 45 mm
12 | 10 µg/mL (≈ 27.5 µM) | 5 µg/mL (≈ 13.8 µM) | 10 µg/mL (≈ 27.5 µM) | 5 µg/mL (≈ 13.8 µM) | 5 µg/mL (≈ 13.8 µM) | 5 µg/mL (≈ 13.8 µM) | 10 µg/mL (≈ 27.5 µM) | 5 µg/mL (≈ 13.8 µM) | 15 µg/mL (≈ 41.3 µM) | COc1ccc2[nH]cc(-c3nc4ccccc4c4cc5ccccc5n34)c2c1 | 49 mm | 49 mm | 49 mm | 50 mm | 42 mm | 39 mm | 50 mm | 46 mm | 48 mm
